Results on 1 molecule are retold here after patent US20050014690A1, “Styryl acrylonitrile compounds and their use to promote myelopoiesis” (priority 2001, published 2005).

For assay [1], the system named is cells of the myeloid lineage. Description: Promotion of myelopoiesis (general statement). The following applies: in vitro, ex vivo and in vivo.
Assay [2] deals with CD34+ multipotent stem cells. Description: CFU-C colony formation from CD34+ selected stem cells. The assay is classed as cell-based, human.
Assay [3] concerns normal bone marrow mononuclear cells. Description: Long-term culture-initiating cell (LTC-IC) assay on stroma after pre-incubation. The assay is classed as cell-based, human. The following applies: for myeloproliferation in long-term cultures: pre-incubated with 50 uM for 5 hours, FIG. 11. The source says:
The long-term BM culture system provides the means to investigate the proliferation and differentiation properties of primitive hematopoietic cells. To assess the long-term effects of CR4 on early progenitor cells the long-term culture-initiating cell (LTC-IC) assay was set up utilizing stromal microenvironment. Briefly, to obtain stromal cells bone marrow mononuclear cells were suspended in long-term culture (LTC) media (MyeloCult Stem Cell Technologies Inc.) supplemented with 10^−6 mol/L hydrocortisone sodium succinate (HSS; Sigma Aldrich Canada Ltd., Mississauga, Ont.,Canada). Approximately 1×10^7 cells were plated into 25 cm^2 tissue culture flasks (Becton Dickinson Labware, Franklin Lakes, N.J., USA) and incubated for 3 days at […] in a humidified atmosphere with 5% CO2 followed by incubation at 33° C. Cultures were re-fed weekly by replacing half of the medium. Following stromal confluency (3-6 weeks) cells were trypsinized and irradiated (1,500 cGy) using a Cs source. Stromal cells were again replated in LTC media at a concentration of 0.5-1.0×10^6 cells per 35 mm culture dishes (Nunc-Gibco BRL, Gaithersburg, Md.). Subcultured stroma was incubated for 2-3 days (at greater than 70% confluency) prior to co-culturing with fresh non-adherent overlay of hematopoietic cells. Normal bone marrow mononuclear cells, purified by centrifugation on Percoll, at a concentration of 1×10^6 cells/ml were pre-incubated with 50 uM CR4 or the drug diluent alone for a period of 5 hours at 37° C. in media. Cells were then washed twice to remove the compound and plated at 2×10^5 cells/ml for the short-term CFU-GEMM clonogenic assay (as previously described) while the remainder of the non-adherent cells were co-cultured with normal stroma (as described above) for long-term cultures. Long-term cultures were set up with two unrelated normal bone marrow samples (NBM1 and NBM2). Half of the non-adherent mononuclear cells were removed weekly from the stromal co-cultures and plated for colony-forming cells (CFU-GM) in the CFU-GEMM assay.

Consider `N#C/C(=C\C=C\c1ccc(O)c(O)c1)C(=O)NCc1ccccc1` [CR4, (E,E)-2-(Benzylaminocarbonyl)-3-(3,4-dihydroxystyryl)acrylonitrile], for which, in assay [1], the promoting myelopoiesis entry is “capable of promoting myelopoiesis”. In addition, the “formation of CFU-C colonies from CD34+ stem cells” value in assay [2] (concentrations from 2.5-7.5 μM, 14 days, FIG. 2) is given as “significantly increased”. For the same molecule, in assay [2] (short-term CFU-GEMM assay, FIG. 12), the “myeloproliferation with purified CD34+ and hematopoietic stem cells” value is recorded as “can be induced”. Moreover, the “number of CFU-GM in long-term cultures” value in assay [3] (50 μM for 5 hours) was “significant increase”. The “myeloproliferation in long-term cultures” value in assay [3] (NBM1) and in assay [3] (NBM2) was “significant increase” throughout.
